Source: ChEMBL document CHEMBL1201862, “PubChem BioAssay data set” (2004)
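Cells were grown in 96-well plates and exposed to each compound for 48 hours at five concentrations; endpoints were interpolated linearly between bracketing concentrations, or set to the highest concentration if not reached. At the GI50, growth is halved.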 Active and inactive are the calls of the source. Rule as the data show it: active = GI50 up to about 1.1 µM and inactive = higher.

Tests used:
Assay in all cases: growth of human tumour cells (NCI), 48 h
786-0 = test system: 786-0
A498 = test system: A498
A549 = test system: A549
ACHN = test system: ACHN
BT-549 = test system: BT-549
CAKI-1 = test system: CAKI-1
CCRF-CEM = test system: CCRF-CEM
COLO 205 = test system: COLO 205
DU-145 = test system: DU-145
EKVX = test system: EKVX
HCC 2998 = test system: HCC 2998
HCT-116 = test system: HCT-116
HCT-15 = test system: HCT-15
HL-60 = test system: HL-60
HOP-92 = test system: HOP-92
HT-29 = test system: HT-29
Hs-578T = test system: Hs-578T
IGROV-1 = test system: IGROV-1
K562 = test system: K562
KM12 = test system: KM12
LOX IMVI = test system: LOX IMVI
M14 = test system: M14
MCF7 = test system: MCF7
MDA-MB-231 = test system: MDA-MB-231
MDA-MB-435 = test system: MDA-MB-435
MDA-N = test system: MDA-N
MOLT-4 = test system: MOLT-4
Malme-3M = test system: Malme-3M
NCI-H226 = test system: NCI-H226
NCI-H23 = test system: NCI-H23
NCI-H522 = test system: NCI-H522
NCI/ADR-RES = test system: NCI/ADR-RES
OVCAR-3 = test system: OVCAR-3
OVCAR-4 = test system: OVCAR-4
OVCAR-5 = test system: OVCAR-5
OVCAR-8 = test system: OVCAR-8
PC-3 = test system: PC-3
RPMI-8226 = test system: RPMI-8226
SF-268 = test system: SF-268
SF-539 = test system: SF-539
SK-MEL-28 = test system: SK-MEL-28
SK-MEL-2 = test system: SK-MEL-2
SK-MEL-5 = test system: SK-MEL-5
SK-OV-3 = test system: SK-OV-3
SNB-19 = test system: SNB-19
SNB-75 = test system: SNB-75
SW-620 = test system: SW-620
TK-10 = test system: TK-10
U-251 = test system: U-251
UACC-257 = test system: UACC-257
UACC-62 = test system: UACC-62
UO-31 = test system: UO-31
HOP-62 = test system: HOP-62
NCI-H460 = test system: NCI-H460
RXF 393 = test system: RXF 393
SN12C = test system: SN12C
SR = test system: SR
T47D = test system: T47D

C/C(=N\NC(=O)CC#N)C(CN1CCCCC1)C(c1ccccc1)c1c(O)c2ccccc2oc1=O (stereo not drawn)
GI50 (786-0): 78 µM (inactive) | GI50 (A498): 21.7 µM (inactive) | GI50 (A549): 45.7 µM (inactive) | GI50 (ACHN): 35 µM (inactive) | GI50 (BT-549): 54.2 µM (inactive) | GI50 (CAKI-1): 64.7 µM (inactive) | GI50 (CCRF-CEM): 26.2 µM (inactive) | GI50 (COLO 205): 18.6 µM (inactive) | GI50 (DU-145): > 100 µM (inactive) | GI50 (EKVX): > 100 µM (inactive) | GI50 (HCC 2998): 55.7 µM (inactive) | GI50 (HCT-116): 62.2 µM (inactive) | GI50 (HCT-15): 45.5 µM | GI50 (HL-60): 27.2 µM (inactive) | GI50 (HOP-92): 18.5 µM (inactive) | GI50 (HT-29): 46.8 µM (inactive) | GI50 (Hs-578T): 50.6 µM (inactive) | GI50 (IGROV-1): 77.6 µM (inactive) | GI50 (K562): 55 µM (inactive) | GI50 (KM12): 39.5 µM (inactive) | GI50 (LOX IMVI): 17.4 µM (inactive) | GI50 (M14): 68.5 µM (inactive) | GI50 (MCF7): 17.3 µM (inactive) | GI50 (MDA-MB-231): 35.5 µM (inactive) | GI50 (MDA-MB-435): 53.2 µM (inactive) | GI50 (MDA-N): 49.8 µM (inactive) | GI50 (MOLT-4): 26.5 µM (inactive) | GI50 (Malme-3M): 41 µM (inactive) | GI50 (NCI-H226): 52.1 µM (inactive) | GI50 (NCI-H23): 46.2 µM (inactive) | GI50 (NCI-H522): 58.2 µM (inactive) | GI50 (NCI/ADR-RES): 48.9 µM (inactive) | GI50 (OVCAR-3): 47.5 µM (inactive) | GI50 (OVCAR-4): 52.1 µM (inactive) | GI50 (OVCAR-5): > 100 µM (inactive) | GI50 (OVCAR-8): 63.5 µM (inactive) | GI50 (PC-3): 58.3 µM (inactive) | GI50 (RPMI-8226): 33.7 µM (inactive) | GI50 (SF-268): > 100 µM (inactive) | GI50 (SF-539): 52.6 µM (inactive) | GI50 (SK-MEL-28): > 100 µM (inactive) | GI50 (SK-MEL-2): 35.7 µM (inactive) | GI50 (SK-MEL-5): 51.2 µM (inactive) | GI50 (SK-OV-3): 64 µM (inactive) | GI50 (SNB-19): 80.4 µM (inactive) | GI50 (SNB-75): 67.5 µM (inactive) | GI50 (SW-620): 91.4 µM (inactive) | GI50 (TK-10): 91.8 µM (inactive) | GI50 (U-251): 58.6 µM (inactive) | GI50 (UACC-257): 37.2 µM (inactive) | GI50 (UACC-62): 45.4 µM (inactive) | GI50 (UO-31): 33.9 µM (inactive)

Cc1ccc(/N=C2/S/C(=C3/CCC=C3N3CCOCC3)N(c3ccc(Cl)cc3)/C2=N/c2ccc(C)cc2)cc1
GI50 (786-0): > 100 µM (inactive) | GI50 (A498): > 100 µM (inactive) | GI50 (A549): > 100 µM (inactive) | GI50 (ACHN): > 100 µM (inactive) | GI50 (BT-549): > 100 µM (inactive) | GI50 (COLO 205): > 100 µM (inactive) | GI50 (EKVX): > 100 µM (inactive) | GI50 (HCC 2998): > 100 µM (inactive) | GI50 (HCT-116): > 100 µM (inactive) | GI50 (HCT-15): > 100 µM | GI50 (HL-60): > 100 µM (inactive) | GI50 (HOP-62): > 100 µM (inactive) | GI50 (HOP-92): > 100 µM (inactive) | GI50 (HT-29): > 100 µM (inactive) | GI50 (Hs-578T): > 100 µM (inactive) | GI50 (IGROV-1): > 100 µM (inactive) | GI50 (K562): > 100 µM (inactive) | GI50 (KM12): > 100 µM (inactive) | GI50 (M14): > 100 µM (inactive) | GI50 (MCF7): > 100 µM (inactive) | GI50 (MDA-MB-231): > 100 µM (inactive) | GI50 (MDA-N): > 100 µM (inactive) | GI50 (MOLT-4): > 100 µM (inactive) | GI50 (Malme-3M): > 100 µM (inactive) | GI50 (NCI-H226): > 100 µM (inactive) | GI50 (NCI-H23): > 100 µM (inactive) | GI50 (NCI-H460): > 100 µM (inactive) | GI50 (OVCAR-5): > 100 µM (inactive) | GI50 (OVCAR-8): > 100 µM (inactive) | GI50 (PC-3): > 100 µM (inactive) | GI50 (RPMI-8226): > 100 µM (inactive) | GI50 (RXF 393): > 100 µM (inactive) | GI50 (SK-MEL-28): > 100 µM (inactive) | GI50 (SK-MEL-2): > 100 µM (inactive) | GI50 (SK-MEL-5): > 100 µM (inactive) | GI50 (SN12C): > 100 µM (inactive) | GI50 (SNB-19): > 100 µM (inactive) | GI50 (SNB-75): > 100 µM (inactive) | GI50 (SR): > 100 µM (inactive) | GI50 (SW-620): > 100 µM (inactive) | GI50 (T47D): > 100 µM (inactive) | GI50 (TK-10): > 100 µM (inactive) | GI50 (U-251): > 100 µM (inactive) | GI50 (UACC-257): > 100 µM (inactive) | GI50 (UACC-62): > 100 µM (inactive) | GI50 (UO-31): > 100 µM (inactive)
